Measured values published in patent US10806785B2, “Immunomodulator compounds and methods of use” (Incyte Corporation, priority 2016, dated 2020).

What follows are compounds tested against PD-1/PD-L1 (Homo sapiens (Human), UniProt Q9NZQ7) (assay: PD-1/PD-L1 binding assay (HTRF)).
In short: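 HTRF read-out (665/620 nm) after 60 min at 25 °C with 1 nM Eu anti-human IgG and 20 nM APC anti-His. Beforehand, inhibitors were preincubated 40 min with Fc-PD-1 (25-167, […] as listed) and His-PD-L1 (19-238, 10 nM) in PBS pH 7.4 with Tween-20, BSA, 1% DMSO; IC50 from log-concentration curve.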

Sequence of PD-1/PD-L1 (Q9NZQ7 19-238): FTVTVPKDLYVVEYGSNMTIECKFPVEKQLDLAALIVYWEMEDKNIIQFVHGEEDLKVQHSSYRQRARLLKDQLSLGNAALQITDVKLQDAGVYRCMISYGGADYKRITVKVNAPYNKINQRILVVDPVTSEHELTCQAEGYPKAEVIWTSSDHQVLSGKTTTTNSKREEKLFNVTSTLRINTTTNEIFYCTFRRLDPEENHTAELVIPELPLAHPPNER

IC50, ≤ 10 nM:
Cn1c(C(=O)Nc2cccc(-c3cccc(NC(=O)c4nc5c(n4C)CCN(C4CCC4)C5)c3Cl)c2Cl)nc2c1CCN(CC13CCC(C(=O)O)(CC1)C3)C2 [Compound 178, 4-((2-(2,2′-dichloro-3′-(5-cyclobutyl-1-methyl-4,5,6,7-tetrahydro-1H-imidazo[4,5-c]pyridine-2-carboxamido)biphenyl-3-ylcarbamoyl)-1-methyl-6,7-dihydro-1H-imidazo[4,5-c]pyridin-5(4H)-yl)methyl)bicyclo[2.2.1]heptane-1-carboxylic acid]
Cc1c(NC(=O)c2cc(CN3CC[C@@H](O)C3)cn(C)c2=O)cccc1-c1cccc(NC(=O)c2nc3c(n2C)CCN(C)C3)c1Cl [Example 48, (R)—N-(2-chloro-3′-(5-((3-hydroxypyrrolidin-1-yl)methyl)-1-methyl-2-oxo-1,2-dihydropyridine-3-carboxamido)-2′-methylbiphenyl-3-yl)-1,5-dimethyl-4,5,6,7-tetrahydro-1H-imidazo[4,5-c]pyridine-2-carboxamide]
Cc1c(NC(=O)c2nc3c(n2C)CCN(C[C@H](O)CO)C3)cccc1-c1cccc(NC(=O)c2nc3c(n2C)CCN(C)C3)c1Cl [Example 32, (S)—N-(2′-chloro-3′-(1,5-dimethyl-4,5,6,7-tetrahydro-1H-imidazo[4,5-c]pyridine-2-carboxamido)-2-methylbiphenyl-3-yl)-5-(2,3-dihydroxypropyl)-1-methyl-4,5,6,7-tetrahydro-1H-imidazo[4,5-c]pyridine-2-carboxamide]
Cn1c(C(=O)Nc2cccc(-c3cccc(NC(=O)c4nc5c(n4C)CCN(C[C@H]4CC[C@H](C(=O)O)CC4)C5)c3C#N)c2Cl)nc2c1CCN(C1CCOCC1)C2 [Compound 157, trans-4-((2-((2′-chloro-2-cyano-3′-(1-methyl-5-(tetrahydro-2H-pyran-4-yl)-4,5,6,7-tetrahydro-1H-imidazo[4,5-c]pyridine-2-carboxamido)-[1,1′-biphenyl]-3-yl)carbamoyl)-1-methyl-1,4,6,7-tetrahydro-5H-imidazo[4,5-c]pyridin-5-yl)methyl)cyclohexane-1-carboxylic acid]
C[C@H](O)CN1CCc2c(nc(C(=O)Nc3cccc(-c4cccc(NC(=O)c5nc6c(n5C)CCN(C)C6)c4Cl)c3Cl)n2C)C1 [Example 27, (S)—N-(2,2′-dichloro-3′-(1,5-dimethyl-4,5,6,7-tetrahydro-1H-imidazo[4,5-c]pyridine-2-carboxamido)biphenyl-3-yl)-5-(2-hydroxypropyl)-1-methyl-4,5,6,7-tetrahydro-1H-imidazo[4,5-c]pyridine-2-carboxamide]
CCC1(C(=O)O)CCC(N2CCc3c(nc(C(=O)Nc4cccc(-c5cccc(NC(=O)c6nc7c(n6C)CCN(C)C7)c5Cl)c4C)n3C)C2)CC1 (stereo not drawn) [Example 104, 4-(2-((2′-chloro-3′-(1,5-dimethyl-4,5,6,7-tetrahydro-1H-imidazo[4,5-c]pyridine-2-carboxamido)-2-methyl-[1,1′-biphenyl]-3-yl)carbamoyl)-1-methyl-1,4,6,7-tetrahydro-5H-imidazo[4,5-c]pyridin-5-yl)-1-ethylcyclohexane-1-carboxylic acid]
Cc1c(NC(=O)c2cc(CN3CCCC3)cn(C)c2=O)cccc1-c1cccc(NC(=O)c2nc3c(n2C)CCN(C[C@H](C)O)C3)c1Cl [Example 52, (S)—N-(2-chloro-2′-methyl-3′-(1-methyl-2-oxo-5-(pyrrolidin-1-ylmethyl)-1,2-dihydropyridine-3-carboxamido)biphenyl-3-yl)-5-(2-hydroxypropyl)-1-methyl-4,5,6,7-tetrahydro-1H-imidazo[4,5-c]pyridine-2-carboxamide]
CCN1CCc2c(nc(C(=O)Nc3cccc(-c4cccc(NC(=O)c5nc6c(n5C)CCN(CC[C@H]5CC[C@H](C(=O)O)CC5)C6)c4C#N)c3Cl)n2C)C1 [Compound 154, trans-4-(2-(2-((2′-chloro-2-cyano-3′-(5-ethyl-1-methyl-4,5,6,7-tetrahydro-1H-imidazo[4,5-c]pyridine-2-carboxamido)-[1,1′-biphenyl]-3-yl)carbamoyl)-1-methyl-1,4,6,7-tetrahydro-5H-imidazo[4,5-c]pyridin-5-yl)ethyl)cyclohexane-1-carboxylic acid]
CCN1CCc2c(nc(C(=O)Nc3cccc(-c4cccc(NC(=O)c5nc6c(n5C)CCN(CC[C@H]5CC[C@H](C(=O)O)CC5)C6)c4Cl)c3C)n2C)C1 [Example 127, trans-4-(2-(2-((2-chloro-3′-(5-ethyl-1-methyl-4,5,6,7-tetrahydro-1H-imidazo[4,5-c]pyridine-2-carboxamido)-2′-methyl-[1,1′-biphenyl]-3-yl)carbamoyl)-1-methyl-1,4,6,7-tetrahydro-5H-imidazo[4,5-c]pyridin-5-yl)ethyl)cyclohexane-1-carboxylic acid]
Cc1c(NC(=O)c2nc3c(n2C)CCN(C2CCCC2)C3)cccc1-c1cccc(NC(=O)c2nc3c(n2C)CCN(CC[C@H]2CC[C@H](C(=O)O)CC2)C3)c1Cl [Example 130, trans-4-(2-(2-((2-chloro-3′-(5-cyclopentyl-1-methyl-4,5,6,7-tetrahydro-1H-imidazo[4,5-c]pyridine-2-carboxamido)-2′-methyl-[1,1′-biphenyl]-3-yl)carbamoyl)-1-methyl-1,4,6,7-tetrahydro-5H-imidazo[4,5-c]pyridin-5-yl)ethyl)cyclohexane-1-carboxylic acid]
Cc1c(NC(=O)c2nc3c(n2C)CCN(C2CCC(O)CC2)C3)cccc1-c1cccc(NC(=O)c2nc3c(n2C)CCN(C2CCC(C)(C(=O)O)CC2)C3)c1Cl (stereo not drawn) [Compound 140, 4-(2-((2-chloro-3′-(5-(4-hydroxycyclohexyl)-1-methyl-4,5,6,7-tetrahydro-1H-imidazo[4,5-c]pyridine-2-carboxamido)-2′-methyl-[1,1′-biphenyl]-3-yl)carbamoyl)-1-methyl-1,4,6,7-tetrahydro-5H-imidazo[4,5-c]pyridin-5-yl)-1-methylcyclohexane-1-carboxylic acid]
CN1CCc2c(nc(C(=O)Nc3cccc(-c4cccc(NC(=O)c5nc6c(n5C)CCN(C5CCC(C(=O)O)CC5)C6)c4Cl)c3Cl)n2C)C1 (stereo not drawn) [Example 79, 4-(2-((2,2′-dichloro-3′-(1,5-dimethyl-4,5,6,7-tetrahydro-1H-imidazo[4,5-c]pyridine-2-carboxamido)-[1,1′-biphenyl]-3-yl)carbamoyl)-1-methyl-1,4,6,7-tetrahydro-5H-imidazo[4,5-c]pyridin-5-yl)cyclohexane-1-carboxylic acid]
Cn1c(C(=O)Nc2cccc(-c3cccc(NC(=O)c4nc5c(n4C)CCN(C[C@H]4CC[C@H](C(=O)O)CC4)C5)c3Cl)c2Cl)nc2c1CCNC2 [Example 61, trans-4-((2-(2,2′-dichloro-3′-(1-methyl-4,5,6,7-tetrahydro-1H-imidazo[4,5-c]pyridine-2-carboxamido)biphenyl-3-ylcarbamoyl)-1-methyl-6,7-dihydro-1H-imidazo[4,5-c]pyridin-5(4H)-yl)methyl)cyclohexane-1-carboxylic acid]
CCN(C)CC(=O)N1Cc2nc(-c3cccc(-c4cccc(NC(=O)c5nc6c(n5C)CCN(C[C@H]5CC[C@H](C(=O)O)CC5)C6)c4Cl)c3Cl)oc2C1 [Compound 172, trans-4-((2-((2,2′-dichloro-3′-(5-(N-ethyl-N-methylglycyl)-5,6-dihydro-4H-pyrrolo[3,4-d]oxazol-2-yl)-[1,1′-biphenyl]-3-yl)carbamoyl)-1-methyl-1,4,6,7-tetrahydro-5H-imidazo[4,5-c]pyridin-5-yl)methyl)cyclohexane-1-carboxylic acid]
Cc1c(NC(=O)c2nc3c(n2C)CCN(C2CCOCC2)C3)cccc1-c1cccc(NC(=O)c2nc3c(n2C)CCN(CCc2ccc(C(=O)O)cc2)C3)c1Cl [Example 124, 4-(2-(2-((2-chloro-2′-methyl-3′-(1-methyl-5-(tetrahydro-2H-pyran-4-yl)-4,5,6,7-tetrahydro-1H-imidazo[4,5-c]pyridine-2-carboxamido)-[1,1′-biphenyl]-3-yl)carbamoyl)-1-methyl-1,4,6,7-tetrahydro-5H-imidazo[4,5-c]pyridin-5-yl)ethyl)benzoic acid]
CC(C)N1CCc2c(nc(C(=O)Nc3cccc(-c4cccc(NC(=O)c5nc6c(n5C)CCN(C[C@H]5CC[C@@H](C(=O)O)CC5)C6)c4Cl)c3Cl)n2C)C1 [Example 72, cis-4-((2-((2,2′-dichloro-3′-(5-isopropyl-1-methyl-4,5,6,7-tetrahydro-1H-imidazo[4,5-c]pyridine-2-carboxamido)-[1,1′-biphenyl]-3-yl)carbamoyl)-1-methyl-1,4,6,7-tetrahydro-5H-imidazo[4,5-c]pyridin-5-yl)methyl)cyclohexane-1-carboxylic acid]
Cc1c(NC(=O)c2nc3c(n2C)CCN(C[C@H](C)O)C3)cccc1-c1cccc(NC(=O)c2nc3c(n2C)CCN(C2CCN(S(C)(=O)=O)CC2)C3)c1Cl [Example 43, (S)—N-(2′-chloro-2-methyl-3′-(1-methyl-5-(1-(methylsulfonyl)piperidin-4-yl)-4,5,6,7-tetrahydro-1H-imidazo[4,5-c]pyridine-2-carboxamido)biphenyl-3-yl)-5-(2-hydroxypropyl)-1-methyl-4,5,6,7-tetrahydro-1H-imidazo[4,5-c]pyridine-2-carboxamide]
Cn1c(C(=O)Nc2cccc(-c3cccc(NC(=O)c4nc5c(n4C)CCN(C4CCC(O)CC4)C5)c3Cl)c2Cl)nc2c1CCN(CC13CCC(C(=O)O)(CC1)C3)C2 (single isomer, unassigned) [183 (compound 183-1), 4-((2-(2,2′-dichloro-3′-(5-(4-hydroxycyclohexyl)-1-methyl-4,5,6,7-tetrahydro-1H-imidazo[4,5-c]pyridine-2-carboxamido)biphenyl-3-ylcarbamoyl)-1-methyl-6,7-dihydro-1H-imidazo[4,5-c]pyridin-5(4H)-yl)methyl)bicyclo[2.2.1]heptane-1-carboxylic acid]
